The results in this text go back to patent US20250057917A1, “COMPOSITION AND METHODS FOR TREATING RADIATION INDUCED INJURY” (Xequel Bio, Inc., priority 2023, published 2025).

Like-named read-outs stand apart in the source and are kept apart here. The star is where a group is joined. Biotin = O=C1N[C@H]2[C@H](CS[C@H]2CCCCC(=O)*)N1; Ahx = NCCCCCC(=O)O

Assay [1] has as its system keratinocyte. The following applies: aCT1 treatment, Student's t-test p<0.0001, n=8, FIG. 9A.
Text: (§1) Student's t-test, *p<0.0001; n=8; mean±SEM. […] Student's t-test, *p<0.0018; n=3; mean±SEM.
The subject of assay [2] is keratinocyte. The following applies: aCT1 treatment, Student's t-test p<0.0018, n=3, FIG. 9B.
Text: as §1

Regarding “{Biotin-Ahx}-RQPKIWFPNRRKPWKKRPRPDDLEI-OH [aCT1]”, the keratinocyte proliferation result with keratinocyte [1] is “an increase in keratinocyte proliferation”; in the assay on keratinocyte [1] (listed as aCT1 peptide), “accelerated keratinocyte migration and proliferation”. In addition, the keratinocyte migration result in the assay on keratinocyte [2] was “an increase in keratinocyte migration”; in the assay on keratinocyte [2] (listed as aCT1 peptide) it was “accelerated keratinocyte migration and proliferation”.
